Data on 3 molecules can be found in patent publication US6406868B1, “AMPA-binding human GluR1 receptors” (priority 1992, dated 2002).

The subject of test [1] is human GluR1B receptor. The test can be described thus: NMDA binding to membranes of transfected COS-1 cells. Conditions: membrane preparations from human GluR1B receptor-producing COS cells. The protocol:
(§1) Transfected cells in the frozen state were resuspended in ice-cold distilled water using a hand homogenizer, sonicated for 5 seconds, and then centrifuged for 20 minutes at 50,000 g. The supernatant was discarded and the membrane pellet stored frozen at −70° C.
(§2) COS cell membrane pellets were suspended in ice cold 5 mM Tris-HCI (pH 7.55, 5C) and centrifuged again at 50,000 g for 10 minutes in order to remove endogenous glutamate that would compete for binding. Pellets were resuspended in ice cold 50 mM Tris-HCl (pH 7.55) buffer and the resultant membrane preparation was used as tissue source for binding experiments described below. Proteins were determined using the Pierce Reagent with BSA as standard.

In test [2] the test system is human GluR1B receptor. The test can be described thus: AMPA-binding assay with membranes of transfected COS-1 cells. Conditions: 10 nM [3H]-AMPA; membrane preparations from human GluR1B receptor-producing COS cells; non-specific binding with 1 mM L-glutamate; FIG. 3. The protocol:
as §1, §2
Binding assays were then performed, using an amount of COS-derived membrane equivalent to from 25-100 ug as judged by protein determination and selected radiolabelled ligand. In particular, for AMPA-binding assays, incubation mixtures consisted of 25-100 ug tissue protein and D,L-alpha-[5-methyl-3H]amino-3-hydroxy-5-methylisoxazole-4-propionic acid (3H-AMPA, 27.6Ci/mmole, 10 nM final) with 0.1 M KSCN and 2.5 mM CaCl2 in the 1 ml final volume. Non-specific binding was determined in the presence of 1 mM L-glutamate. […] Pellets were washed twice in 4 ml of the cold incubation buffer, then 5 ml of Beckman Ready-Protein Plus scintillation cocktail was added, for counting.

The subject of test [3] is human GluR1B receptor. The test can be described thus: kainate-binding assay with membranes of transfected COS-1 cells. Conditions: [vinylidene-3H] kainic acid 5 nM; membrane preparations from human GluR1B receptor-producing COS cells. The protocol: as §1, §2
For kainate-binding assays, incubation mixtures consisted of 25-100 ug tissue protein and [vinylidene-3H] kainic acid (58Ci/mmole, 5 nM final) in the cold incubation buffer, 1 ml final volume. Non-specific binding was determined in the presence of 1 mM L-glutamate. Samples were incubated as for the AMPA-binding assays, and bound and free ligand were separated by rapid filtration using a Brandel cell harvester and GF/B filters pre-soaked in ice-cold 0.3% polyethyleneimine. Filters were washed twice in 6 ml of the cold incubation buffer, then placed in scintillation vials with 5 ml of Beckman Ready-Protein Plus scintillation cocktail for counting.

As for `CN[C@H](CC(=O)O)C(=O)O` [NMDA, N-methyl-D-aspartate], the “binding of NMDA” value in the test on human GluR1B receptor [1] is recorded as “little or no demonstrable binding”.
As for `[3H]Cc1onc(O)c1CC(N)C(=O)O` (racemic) [[3H]-AMPA, D,L-alpha-[5-methyl-3H]amino-3-hydroxy-5-methylisoxazole-4-propionic acid], the specific binding in the test with human GluR1B receptor [2] is reported as 100-150 fmole/mg protein.
`C=C(C)[C@H]1CN[C@H](C(=O)O)[C@H]1CC(=O)O` [kainate, [vinylidene-3H] kainic acid]: in the test with human GluR1B receptor [3], the binding of kainate entry is listed as “little or no demonstrable binding”.
